According to US12497359B2, “Acrylamide derivatives” (NRG Therapeutics Ltd, priority 2020, dated 2025):

Key:
[1] = tested on: mPTP; assay: mPTP activity assay in isolated rat liver mitochondria (Ca2+ retention, Fluo5N, FLIPR); type: biochemical; settings: for mPTP Rat liver pIC50*: isolated rat liver mitochondria, average value from multiple experiments (n ≥ 2)
In short: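 Freshly isolated female Sprague Dawley rat liver mitochondria in pH 7.4 buffer with 10 mM succinate, 1 μM rotenone and 2 μM Fluo5N, preincubated 10 min at RT with compound (30 μM to 1 nM). CaCl2 bolus (75 μM) added; IC50 from 10 min fluorescence, normalised to DMSO and 5 μM cyclosporin A.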

[2] = tested on: mPTP; assay: mPTP activity assay in isolated rat brain mitochondria; type: biochemical; settings: for mPTP Rat brain pIC50: isolated rat brain mitochondria
Protocol: MPTP activity was measured in brain mitochondria freshly isolated from female Sprague Dawley (250 to 300 gram) rats. Anaesthetised rats were perfused in-situ with ˜40 ml cold Dulbecco's Phosphate Buffered Saline (DPBS), then brains dissected and transferred into 30 ml Isolation Buffer (225 mM mannitol, 75 mM sucrose, 1 mM EGTA, adjusted to pH 7.4 with 1 M NaOH). The brain was minced using tweezers and a scalpel into ˜5 mm pieces then transferred into a 50 ml Potterton Dounce homogenization tube on ice containing 10 ml ice-cold isolation buffer (as above with addition of Complete Protease inhibitor; 1 tablet per 50 ml buffer). Homogenisation was carried out using a teflon pestle at 1800 rpm. The slurry was centrifuged at 2000 g for 10 min at 4° C., then the supernatant centrifuged at 12,000 g for 9 min. The pellet was resuspended with a dounce homogeniser in isolation buffer as above but with the addition of 0.02% digitonin, centrifuged at 12,000 g for 11 min and finally resuspended in 5 ml modified isolation buffer (as above but with EGTA reduced to 0.1 mM).
Test compounds were prepared in 384 well polypropylene assay plates as described above for the liver mitochondria assay. A stock mitochondria/Fluo5N assay solution was prepared in 5.6 ml assay buffer (120 mM mannitol, 40 mM MOPS, 5 mM KH2PO4, 60 mM KCl, 10 mM pyruvate, 2 mM malate, 2 mM MgCl2, 20 μM ADP, 1.26 μM oligomycin A, adjusted to pH 7.4) supplemented with Fluo5N pentapotassium salt (2 μM) and 1 ml mitochondria suspension, then transferred (15 μl) into the assay plate containing test compounds and incubated for 10 min at RT. Assay plates were then transferred to a FLIPR Tetra plate reader (Molecular Devices). Dye fluorescence was then measured every 3 sec for a total of 10 min. After 12 sec, a 2.5 μl bolus of Ca2+(75 μM) was added from a source plate containing 675 μM CaCl2 in FLIPR assay buffer. IC50 values for test compounds were calculated using the fluorescence value collected at the 10 min timepoint with % inhibition calculated using the DMSO control and cyclosporin A values at […].

[3] = comparison among Example compounds, in words

Compound | activity in the rat liver mitochondria assay [1, 3] | mPTP Rat liver pIC50* [1] | activity in the rat brain mitochondria assay [2, 3] | mPTP Rat brain pIC50 [2]
C[C@H]1Cc2ccccc2[C@@H]1NC(=O)/C=C/c1ccc2cn[nH]c2c1 (single isomer, unassigned) [Example 14c] | highest activity | 7.9 | highest activity | 8.4
C[C@@H]1COc2ccccc2[C@@H]1NC(=O)/C=C/c1ccc2cn[nH]c2c1 (single isomer, unassigned) [Example 15d, (E)-3-(1H-indazol-6-yl)-N-(3-methylchroman-4-yl)acrylamide] |  | 7.6 |  | 7.6
O=C(/C=C/c1ccc2cn[nH]c2c1)N[C@@H]1CCc2ccccc21 [Example 3, (R,E)-N-(2,3-dihydro-1H-inden-1-yl)-3-(1H-indazol-6-yl)acrylamide] |  | 7.2 |  | 7.3
COCc1ccccc1NC(=O)/C=C/c1ccc2cn[nH]c2c1 [Example 29, (E)-3-(1H-indazol-6-yl)-N-(2-(methoxymethyl)phenyl)acrylamide] |  | 7.1 |  | 6.8
